Measurements taken from patent US8741570B2, “Thermo-optical characterisation of nucleic acid molecules” (Ludwig-Maximilians-Universitat Munchen, priority 2008, dated 2014).
{AF700} = Alexa Fluor 700 fluorescent dye

Assays:
[1] = Thermodiffusion (Soret coefficient) by microfluidic fluorescence imaging / single particle tracking; assay type: physicochemical; details: 50 μM dye in 10 mM TRIS buffer, concentration over time method
[2] = Hydration entropy from literature; assay type: physicochemical; details: linear scaling with surface area using radius a=2 nm
From the text: The intercept ST(λDH=0), where ionic contributions are zero, also scales with particle surface and is described by a hydration entropy per particle surface of shyd=−1400 J/(molKμm^2). The value matches the literature values for similar surfaces reasonably well^30,31. […] Linear scaling with its surface area by using a radius of a=2 nm results in a value of shyd=−2500 J/(molKμm^2), in qualitative agreement with our result. The hydration entropy is a highly informative molecule parameter which is notoriously difficult to measure, yielding an interesting application for thermodiffusion.

[3] = at a comparable temperature; cited from earlier work
bacteriophage lambda DNA = experiment: DNA hybridization thermophoresis of labelled probe with lambda DNA; assay type: binding
Experimental: Typical target molecules are longer than 20 bases and double stranded. For target molecules longer than 20 bases and double stranded, one has to expect a competing reaction between the labeled probe and the target DNA strands containing the same “probe-sequence”. […] The concentration change is determined in samples containing the pure DNA probe and in solutions containing the probe mixed with lambda DNA. We checked twice for the hybridization of probe DNA and lambda DNA. First after simply mixing of the molecules and second after an additional annealing procedure (94° C., 5 min and 72° C., 5 min) was carried out.
The experiment shown in FIG. 38 (b) is performed at a constant concentration of 40 nM probe DNA and 10 nM target DNA. All samples are preferably measured in a 100 μm-1 mm Capillary. The thermo-optical properties of the probe DNA have been determined in an independent experiment, followed by a mix of probe and target. […]
After an equilibration time of preferably 10 seconds a first capillary can be measured. […]
Step 1. […] (The thermo-optical properties (i.e. concentration change) of the free probe molecule is known from an independent experiment. Alternatively the thermo-optical behavior of a DNA molecule similar to the probe, but not complementary to a target molecule, is measured simultaneously in a multiplex approach (internal reference)).
Step 2. […] The immediately established local spatial temperature distribution causes the labeled primers and elongated primers (as well as internal reference standards) to drift to lower or higher temperatures, depending on the particular molecule to be analyzed and conditions like pH, salt concentration etc. […] The maximum temperature elevation is set below values which would harm the molecules to be analyzed or hinder their hybridization. […]
Step 3. During the laser heating an image of the fluorescence distribution is recorded (or multiple frames which may be averaged to a single image). Afterwards the infrared laser and the fluorescence excitation light source are turned off. […]

In the case of BCECF, the “Soret coefficient ST” value [1] is reported as 0.015 /K.

In the case of C[C@H](NS(=O)(=O)c1cccc2c(N(C)C)cccc12)C(=O)O [Dansyl-Alanine], the “hydration entropy per surface shyd” value [2] is listed as −2500 J/(molKμm^2) and the hydration entropy [3] is listed as −0.13 J/(molK).

For “5′-GATGAGTTCGTGTCCGTACAACTGG-3′ (DNA, 5' {AF700}, backbone and methylation of C not given here) [probe]”, the concentration change (bacteriophage lambda DNA; free probe, 40 nM) was −2%, the concentration change (bacteriophage lambda DNA; probe 40 nM mixed with 10 nM lambda DNA, without annealing procedure) was −3% and the concentration change (bacteriophage lambda DNA; probe 40 nM with 10 nM lambda DNA after denaturing (94° C., 5 min) and annealing (72° C., 5 min)) was −10%.
